Data: patent US12023408B2, “Amorphous efinaconazole solid dispersion” (DAEBONG LS CO., LTD., priority 2019, dated 2024)

Test: Test for the content of related substances (stability in solution, HPLC)
Assay type: physicochemical
Conditions: dissolved in a solution
Procedure: Experimental Example 1—Test for the Content of Related Substances […] Thereafter, the contents of related substances were measured by high-performance liquid chromatography (HPLC). The same procedure was repeated except that crystalline efinaconazole was used instead of the solid dispersion.

content of related substances (oven at 65° C., 0 (initial)): 0 | content of related substances (oven at 65° C., 1 week): 0.45% | content of related substances (oven at 65° C., 2 weeks): 0.54% | content of related substances (oven at 65° C., 4 weeks): 1.53% | content of related substances (room temperature, 0 (initial)): 0 | content of related substances (room temperature, 1 week): 0.27% | content of related substances (room temperature, 2 weeks): 0.39% | content of related substances (room temperature, 4 weeks): 0.40%
Structure (SMILES): C=C1CCN([C@H](C)[C@](O)(Cn2cncn2)c2ccc(F)cc2F)CC1 [Efinaconazole, (2R,3R)-2-(2,4-difluorophenyl)-3-(4-methylenepiperidin-1-yl)-1-(1H-1,2,4-triazol-1-yl)butan-2-ol]
